Measured values published in publication PMC8783508, “A novel D-amino acid peptide with therapeutic potential (ISAD1) inhibits aggregation of neurotoxic disease-relevant mutant Tau and prevents Tau toxicity in vitro” (Alzheimer's Research & Therapy, 2022).
Non-standard residues stand in square brackets, D forms with d. Residues, ends and D or L forms follow the SMILES beside them.

How the values were obtained:
[1] = system: N2a-Tau^RDΔK cells; experiment: LDH release with the peptides alone; assay type: cell-based; conditions: 25, 50, 100, 250 μM peptide, 24 h, n = 3
Protocol: N2a cells expressing Tau^RDΔK were plated on poly D-lysine-coated 96-well plates with a density of 25,000 cells/well. At 70 to 80% confluence, the cells were treated for 24 h with various concentrations of D-peptides (25, 50, 100, and 250 μM) or Tau^RDΔK (10 μM final concentration) in the presence of ISAD1 and ISAD1rev (100 μM final concentration). The ability of D-peptides to neutralize the toxicity of Tau^RDΔK oligomers/fibrils was investigated by measuring the amount of released LDH (Roche Diagnostics, Mannheim, Germany). Therefore, 50 μL of each well was transferred to a fresh 96-well plate and 50 μL of reagent was added followed by a 30-min incubation period at RT. Finally, 50 μL of stop solution (1 N HCl) was added and absorbance was recorded at 492 nm (TECAN spectrofluorometer, Männedorf, Switzerland). Absorbance values were corrected by background values and the percentage of LDH release was calculated.

[2] = DLS of D-peptides alone with heparin; assay type: physicochemical; conditions: 100 μM D-peptide, 2.5 µM heparin 16000, 24 hours
Protocol: After the ThS assay (end time point, 24 h), the samples were used for DLS measurements. Twenty microliters of the sample was placed in a quartz batch cuvette (ZEN2112) and the measurement was performed at 25 °C in a Zetasizer Nano S instrument (Malvern Instruments, Herrenberg, Germany). The sample was thermally equilibrated at 25 °C for 2 min. The mean value of the intensities of an individual sample was determined over 3 measurements with 15 runs each. Analysis and averaging of the collected data were performed with the Zetasizer software 7.11 (Malvern Instruments, Herrenberg, Germany) and the result is represented as a volume graph. Tau^RDΔK fibrils (Tau+heparin) formed in the absence of D-peptides was used as a positive control.
100 μM of D-peptides and 2.5 µM of heparin 16000 (H16K) were incubated together for 24 hours and measured by DLS.

[3] = system: N2a-Tau^RDΔK cells; experiment: LDH release, intracellularly expressed Tau^RDΔK (Dox induced); assay type: cell-based; conditions: 1 μg/ml doxycycline, peptide 25, 50, 100, 250 μM, n = 2
Protocol: (§1) After the N2a-Tau^RDΔK cells reached the desired confluence (25,000 cells/well or 80%), intracellular Tau^RDΔK expression was induced by the addition of 1 μg/ml Dox. The cells were plated on poly D-lysine-coated 96-well plates (Greiner Bio-One GmbH, Frickenhausen, Germany) and treated with ISAD1 and ISAD1rev in a concentration range of 25 to 250 μM. TritonX-100 (2%) was used as a positive control. The incubation and Tau^RDΔK expression time was 72 h. Following incubation, cell viability was studied by measuring MTT and LDH release in accordance with the manufacturer’s protocol.

[4] = system: N2a-Tau^RDΔK cells; experiment: ROS measurement (DCF), externally added Tau^RDΔK aggregates; assay type: cell-based; conditions: 10 μM Tau, 100 μM peptide final, pre-incubated, 30 min, n = 3
Protocol: Toxic Tau oligomers and fibrils can induce the production of superoxides and peroxy radicals in cells which can be measured with fluorescent dye dichlorodihydrofluorescein (DCF). N2a-Tau^RDΔK cells were plated on D-lysine-coated 96-well plates. At 70 to 80% confluence, the cells were washed once with warm PBS and then incubated with 20 μM of DCF (Abcam, Cambridge, UK) diluted in 1X dilution buffer for 30 min at 37 °C. After 30 min, the cells were washed once with 1X PBS. After washing, the cells were incubated with desired concentrations of different samples (10 μM oligomers/fibrils ± treated with 100 μM D-peptides or controls) for 30 min. The cytotoxic agent TBHP (tert-butylhydroperoxide) was used as the positive control. The fluorescence intensity was measured using a spectrofluorometer (Tecan, Männedorf, Switzerland; excitation at 485 nm and emission at 535 nm).

[5] = system: N2a-Tau^RDΔK cells; experiment: MTT, toxicity of externally added Tau^RDΔK aggregates; assay type: cell-based; conditions: Tau^RDΔK pre-incubated with peptide 1:10, 24 h, 37 °C; 10 μM Tau, 100 μM peptide final, 24 h on cells, n = 3
Protocol: Cell viability was analyzed in accordance with the manufacturer’s protocol (Roche Diagnostics, Mannheim, Germany; cell proliferation kit II (MTT)). This assay is based on the cleavage of the yellow tetrazolium salt MTT into purple formazan dye by metabolic active cells. The color changes only in viable cells and can be directly quantified using a scanning multiwell spectrophotometer. In all experiments, the cells were grown as described previously. The cells (25,000 cells/well or 80% confluence) were plated on poly D-lysine-coated 96-well plates (Greiner Bio-One GmbH, Frickenhausen, Germany) for stronger attachment from overnight to 24 h at 37 °C. Fibrillized Tau^RDΔK was generated by incubating 200 μM Tau^RDΔK in BES buffer at 37 °C for 24 h in the presence of 2 mM D-peptides (Tau^RDΔK:peptide = 1:10). Successful fibrillization was verified using ThS (5 μM Tau^RDΔK, 10 μM ThS) measurement. The aggregated Tau^RDΔK (10 μM final concentration), Tau^RDΔK (10 μM) + peptide (100 μM) samples (ISAD1 and ISAD1rev), buffer only (negative control, set to 100% cell viability), and TritonX-100 (2%, cytotoxic agent, positive control) were incubated on N2a-Tau^RDΔK cells (100 μl solution) for another 24 h. The cell viability was measured in accordance with the manufacturer’s protocol.

[6] = system: N2a-Tau^RDΔK cells; experiment: MTT, intracellularly expressed Tau^RDΔK (Dox induced); assay type: cell-based; conditions: 1 μg/ml doxycycline, 72 h, n = 2
Protocol: as §1

[7] = system: N2a cells expressing Tau^RDΔK; experiment: Uptake of FAM-labeled D-peptides by confocal microscopy; assay type: cell-based; conditions: 25 μM FAM-labeled peptide, 24 h, fixed cells
Protocol: In order to become potentially suitable for therapeutic development, the D-peptides should be internalized by neurons. To test this, 25 μM FAM-labeled ISAD1 or its inversed form was added to cells that express pro-aggregant mutant Tau^RDΔK for 24 h followed by cell fixation.
Fig. 7 Uptake of fluorescence-labeled D-peptides analyzed by confocal microscopy. 25 μM FAM-labeled peptides (ISAD1 and ISArev) were incubated with N2a cells expressing Tau^RDΔK for 24 h. The uptake of D-peptides was analyzed by confocal microscopy. As shown in the representative images, the peptides are mainly localized in the cytoplasm (A1, B1 Draq5 shown as red; A2 ISAD1-FAM, B2 ISAD1rev-FAM; A3, B3 merged images)

## CC(C)C[C@@H](NC(=O)[C@@H](CO)NC(=O)[C@@H](CC(C)C)NC(=O)[C@H](NC(=O)[C@@H](CC(=O)O)NC(=O)[C@@H](C)NC(=O)[C@@H](C)NC(=O)[C@H](N)CO)[C@H](C)O)C(=O)N[C@H](CCCCN)C(=O)N[C@H](Cc1ccccc1)C(=O)N[C@@H](C(=O)N[C@H](CO)C(=O)O)C(C)C [ISAD1rev] (H-[dS][dA][dA][dD][dT][dL][dS][dL][dK][dF][dV][dS]-OH; N-terminus and C-terminus assumed)
[1]
  Cytotoxicity, LDH release: do not induce toxic effects
[2]
  Particle size of peptide alone in the presence of heparin (DLS): < 2 nm
[3]
  Effect on LDH release of cells expressing Tau^RDΔK: Protection of cell membrane integrity
[4]
  Effect on toxicity of Tau aggregates, ROS level: reducing intracellular ROS levels
[5]
  Effect on toxicity of Tau aggregates, cell viability (MTT): preserving cell viability
[6]
  Cell viability at 50 μM peptide: no increase in cell viability
[7]
  Intracellular localisation: accumulated in the cytosol but were excluded from the nucleus
  Uptake by cells: almost all cells took up the D-peptides
